Source: patent US20080199503A1, “Pharmaceutical Compositions Preparation of Peptides, Secreted by the Snake Venom Glands, Particularly of Bothrops Jararaca, Vasopeptidases Inhibitors, Evasins, Their Analogues, Derivatives and Products Associated, Thereof, for Development of Applications and Use in Chronic-Degenerative Diseases” (priority 2002, published 2008)
Square brackets hold non-standard residues; d marks the D form. Ends that are not written are not given here. Peptide text beside a SMILES is read from it. pGlu = O=C1CC[C@@H](C(=O)O)N1

Tests used:
[1] = target: N-terminal catalytic site of the Angiotensin I converting enzyme (recombinant ACE) (Homo sapiens, UniProt P12821); experiment: Inhibition of the N-terminal catalytic site of recombinant ACE (fluorogenic substrate); type: biochemical
Experimental: (§1) The fractions from purification were submitted to mass spectrometry analysis to conforming the Evasins molar mass after purification. • The enzyme assays for the recombinant ACE inhibition were conducted using the substrate Mca-Ala-Ser-Asp-Lys-DpaOH, at 25° C., in a 50 mM Hepes buffer (pH 6.8), 200 mM NaCl and […] ZnCl2.

[2] = test system: anesthetized normotensive rats (WKY) blood pressure; experiment: Potentiation of the bradykinin hypotensive effect on anesthetized rat blood pressure; type: in vivo; conditions: for Bk potentiation(%): hypotension increase of a single bradykinin dose after 200 nmol of potentiator i.v., anesthetized rats; for Duration time: time to reduce the potentiating effect by 50%, 200 nmol/rat i.v., unit not given, minutes
Experimental: The potentiating activity of the bradykinin hypotensive effect was tested in anesthetized rats. Normotensive male rats (WKY) were anesthetized using pentobarbital sodium (Hypnol® Cristália, 50 mg/kg, intraperitoneal) and placed on a controlled-temperature board for maintaining the body temperature between 36.5° C. and 37° C. A polygraph coupled to a physiological transducer was used. The blood pressure ranging values were obtained by integrating the areas limited by the baseline pressure and comparing them to the values obtained from control assays. In in vivo assays, the potentiating activity of Evasins on the hypotensive effect of bradykinin on anesthetized rat blood pressure was observed. Two parameters were determined for comparison of the potentiating effects of bradykinin on the anesthetized rat blood pressure (n=5):
1) Intensity of the potentiating effect of the hypotensive activity of bradykinin on the anesthetized rats blood pressure: This value was defined as the hypotension percentage (%) increase caused by a single dose of bradykinin obtained after the infusion of 200 nmol of potentiator. 2) Potentiating effect length: Time required to reduce the potentiating effect on a single dose of bradykinin by 50%.

[3] = target: C-terminal catalytic site of the Angiotensin I converting enzyme (recombinant ACE) (Homo sapiens, UniProt P12821); experiment: Inhibition of the C-terminal catalytic site of recombinant ACE (fluorogenic substrate); type: biochemical
Experimental: as §1

[4] = target: neutral endopeptidase (recombinant NEP) (Homo sapiens, UniProt P08473); experiment: Fluorometric assay of recombinant NEP inhibition; type: biochemical
Sequence of neutral endopeptidase (recombinant NEP) (P08473 whole entry, species assumed): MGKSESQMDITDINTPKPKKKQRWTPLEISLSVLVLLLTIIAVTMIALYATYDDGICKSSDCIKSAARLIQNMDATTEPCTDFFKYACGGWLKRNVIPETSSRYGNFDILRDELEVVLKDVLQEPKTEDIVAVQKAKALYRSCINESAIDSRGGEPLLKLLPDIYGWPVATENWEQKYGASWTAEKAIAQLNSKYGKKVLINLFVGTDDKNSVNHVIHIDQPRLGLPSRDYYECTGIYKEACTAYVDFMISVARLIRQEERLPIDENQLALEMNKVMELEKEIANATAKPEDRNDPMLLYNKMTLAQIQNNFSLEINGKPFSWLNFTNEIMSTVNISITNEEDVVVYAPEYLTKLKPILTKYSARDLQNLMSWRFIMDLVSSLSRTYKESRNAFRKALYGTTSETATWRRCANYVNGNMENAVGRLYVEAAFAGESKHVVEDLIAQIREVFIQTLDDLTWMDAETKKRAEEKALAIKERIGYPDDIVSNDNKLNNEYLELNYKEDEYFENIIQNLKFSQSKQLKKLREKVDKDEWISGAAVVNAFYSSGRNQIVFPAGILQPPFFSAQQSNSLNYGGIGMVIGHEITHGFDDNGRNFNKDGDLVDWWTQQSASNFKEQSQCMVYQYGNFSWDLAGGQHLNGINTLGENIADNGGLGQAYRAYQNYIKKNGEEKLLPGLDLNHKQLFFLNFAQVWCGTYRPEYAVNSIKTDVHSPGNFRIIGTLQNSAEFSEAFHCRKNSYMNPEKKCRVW
Experimental: The fluorometric assays for the recombinant NEP inhibition were conducted using the substrate Abz-RL-EDDnp in a 50 mM Tris-HCl buffer, pH 7.5, at 37° C. […] The Evasins were pre-incubated with the enzyme before the substrate addition.
The inhibition constants (Ki) values were determined by means of the ratio of the apparent inhibition constant (Ki(app)) and the substrate Km (Salvesen and Nagase, 1990). In: Proteolytic enzymes a practical aproach, Beynon and Bond Eds Oxford University Press, England, 87-88).

[5] = target: recombinant neutral endopeptidase; experiment: fluorogenic substrate (Abz-RL-EDDnp) inhibition assay, recombinant NEP
[6] = target: T1, recombinant Angiotensin I converting enzyme, N-terminal catalytic site
T1 chain: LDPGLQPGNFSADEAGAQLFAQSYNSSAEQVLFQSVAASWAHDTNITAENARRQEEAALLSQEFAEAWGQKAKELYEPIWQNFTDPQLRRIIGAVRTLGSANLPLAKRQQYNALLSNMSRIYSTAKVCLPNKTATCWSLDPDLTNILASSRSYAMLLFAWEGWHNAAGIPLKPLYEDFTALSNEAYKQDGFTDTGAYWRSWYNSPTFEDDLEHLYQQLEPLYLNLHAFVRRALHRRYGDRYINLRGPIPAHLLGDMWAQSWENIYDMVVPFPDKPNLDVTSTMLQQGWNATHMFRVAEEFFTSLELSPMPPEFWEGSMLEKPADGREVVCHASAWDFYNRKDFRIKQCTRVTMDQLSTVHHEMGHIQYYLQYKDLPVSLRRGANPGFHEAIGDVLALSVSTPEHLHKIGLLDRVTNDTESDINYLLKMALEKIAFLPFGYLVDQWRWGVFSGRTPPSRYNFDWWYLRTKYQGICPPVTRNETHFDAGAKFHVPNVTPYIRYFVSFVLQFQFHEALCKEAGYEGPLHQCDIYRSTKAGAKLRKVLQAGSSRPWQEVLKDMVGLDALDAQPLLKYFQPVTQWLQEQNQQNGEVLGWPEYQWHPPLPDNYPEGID

[7] = target: T2, recombinant Angiotensin I converting enzyme, C-terminal catalytic site
T2 chain: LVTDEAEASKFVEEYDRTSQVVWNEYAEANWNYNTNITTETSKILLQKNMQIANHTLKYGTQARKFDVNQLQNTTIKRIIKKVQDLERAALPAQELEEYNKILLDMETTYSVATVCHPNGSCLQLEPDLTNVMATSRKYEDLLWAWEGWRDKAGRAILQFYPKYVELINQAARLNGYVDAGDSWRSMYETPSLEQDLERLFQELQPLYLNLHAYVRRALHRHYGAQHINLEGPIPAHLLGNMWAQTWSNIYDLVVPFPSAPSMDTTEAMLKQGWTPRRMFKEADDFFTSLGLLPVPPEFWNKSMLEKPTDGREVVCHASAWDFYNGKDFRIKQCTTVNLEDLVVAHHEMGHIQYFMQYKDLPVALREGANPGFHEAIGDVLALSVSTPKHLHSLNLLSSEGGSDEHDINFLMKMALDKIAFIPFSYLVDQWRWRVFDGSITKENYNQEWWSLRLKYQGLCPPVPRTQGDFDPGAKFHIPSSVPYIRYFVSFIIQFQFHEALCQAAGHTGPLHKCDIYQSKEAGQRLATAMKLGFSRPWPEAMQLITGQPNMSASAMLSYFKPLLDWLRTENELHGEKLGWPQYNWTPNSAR

Question: `CC[C@H](C)[C@H](NC(=O)[C@@H]1CCCN1C(=O)[C@@H]1CCCN1C(=O)[C@H](Cc1c[nH]cn1)NC(=O)[C@@H]1CCCN1C(=O)[C@H](C)NC(=O)[C@H](CCCNC(=N)N)NC(=O)CNC(=O)[C@@H]1CCC(=O)N1)C(=O)N1CCC[C@H]1C(=O)N1CCC[C@H]1C(=O)O` [EVASIN-11c, <EGRAPHPPIPP] ([pGlu]GRAPHPPIPP-OH; C-terminus assumed) was tested. Which Ki [1] did it give?
Answer: 2000 nM

Question: And the “Bk potentiation(%)” value [2]?
Answer: 67%

Question: And the Duration time [2]?
Answer: 28

Question: What about the Ki [3] of the same molecule?
Answer: 40 nM

Question: And the Ki [4]?
Answer: 589000 nM

Question: For EVASIN-10c (peptide), which Ki [5] is on record?
Answer: 253000 nM

Question: Which results are given for `CC[C@H](C)[C@H](NC(=O)[C@@H]1CCCN1C(=O)[C@@H]1CCCN1C(=O)[C@H](Cc1c[nH]cn1)NC(=O)[C@@H]1CCCN1C(=O)[C@@H]1CCCN1C(=O)[C@H](CCCNC(=N)N)NC(=O)[C@H](C)NC(=O)[C@@H]1CCC(=O)N1)C(=O)N1CCC[C@H]1C(=O)N1CCC[C@H]1C(=O)O` [EVASIN-11e, EARPPHPPIPP] ([pGlu]ARPPHPPIPP-OH; C-terminus assumed)?
Answer: Bk potentiation(%) [2]: 41%; Duration time [2]: 35

Question: Which results are given for `CC[C@H](C)[C@H](NC(=O)[C@H](CC(N)=O)NC(=O)[C@@H]1CCCN1C(=O)CNC(=O)[C@@H]1CCCN1C(=O)[C@H](Cc1c[nH]c2ccccc12)NC(=O)[C@H](CO)NC(=O)[C@@H]1CCC(=O)N1)C(=O)N1CCC[C@H]1C(=O)N1CCC[C@H]1C(=O)O` [EVASIN-10a, <ESWPGPNIPP] ([pGlu]SWPGPNIPP-OH; C-terminus assumed)?
Answer: Ki [1]: 130 nM; Ki [3]: 33 nM

Question: Which results are given for `CC[C@H](C)[C@H](NC(=O)[C@H](CCC(N)=O)NC(=O)[C@@H]1CCCN1C(=O)[C@H](CCCNC(=N)N)NC(=O)[C@@H]1CCCN1C(=O)[C@H](Cc1c[nH]c2ccccc12)NC(=O)[C@H](C)NC(=O)[C@H](Cc1c[nH]c2ccccc12)NC(=O)CNC(=O)[C@@H]1CCC(=O)N1)C(=O)N1CCC[C@H]1C(=O)N1CCC[C@H]1C(=O)O` [EVASIN-12a, <EGWAWPRPQIPP] ([pGlu]GWAWPRPQIPP-OH; C-terminus assumed)?
Answer: Ki [1]: 25 nM; Ki [3]: 25 nM; Ki [4]: 106000 nM

Question: For `CC[C@H](C)[C@H](NC(=O)[C@H](CCC(=O)O)NC(=O)[C@@H]1CCCN1C(=O)CNC(=O)[C@@H]1CCCN1C(=O)[C@H](CCCNC(=N)N)NC(=O)[C@@H]1CCCN1C(=O)[C@H](Cc1c[nH]c2ccccc12)NC(=O)CNC(=O)CNC(=O)[C@@H]1CCC(=O)N1)C(=O)N1CCC[C@H]1C(=O)N1CCC[C@H]1C(=O)O` [EVASIN-13a, <EGGWPRPGPEIPP] ([pGlu]GGWPRPGPEIPP-OH; C-terminus assumed), which Ki [1] is on record?
Answer: 50 nM

Question: What about the “Bk potentiation(%)” value [2] of the same molecule?
Answer: 45%

Question: And the Duration time [2]?
Answer: 30

Question: And the Ki [3]?
Answer: 50 nM

Question: What about the Ki [4] of the same molecule?
Answer: 473000 nM

Question: What does the source list for `CC[C@H](C)[C@H](NC(=O)[C@@H]1CCCN1C(=O)[C@@H]1CCCN1C(=O)CNC(=O)[C@@H]1CCCN1C(=O)[C@H](C)NC(=O)[C@H](CCCNC(=N)N)NC(=O)CNC(=O)[C@@H]1CCC(=O)N1)C(=O)N1CCC[C@H]1C(=O)N1CCC[C@H]1C(=O)O` [EVASIN-11b, <EGRAPGPPIPP] ([pGlu]GRAPGPPIPP-OH; C-terminus assumed)?
Answer: Ki [1]: 3000 nM; Bk potentiation(%) [2]: 164.3%; Duration time [2]: 90; Ki [3]: 57 nM; Ki [4]: 476000 nM

Question: What does the source list for `CC[C@H](C)[C@H](NC(=O)[C@@H]1CCCN1C(=O)[C@@H]1CCCN1C(=O)CNC(=O)[C@@H]1CCCN1C(=O)[C@@H]1CCCN1C(=O)[C@H](CCCNC(=N)N)NC(=O)CNC(=O)[C@H](Cc1c[nH]c2ccccc12)NC(=O)[C@@H]1CCC(=O)N1)C(=O)N1CCC[C@H]1C(=O)N1CCC[C@H]1C(=O)O` [EVASIN-12b, <EWGRPPGPPIPP] ([pGlu]WGRPPGPPIPP-OH; C-terminus assumed)?
Answer: Ki [1]: 5 nM; Bk potentiation(%) [2]: 340%; Duration time [2]: 40; Ki [3]: 150 nM; Ki [4]: 150000 nM

Question: [pGlu]KWAP [EVASIN-5a] was tested. Which Ki [5] did it give?
Answer: 550000 nM

Question: What about the Ki [6] of the same molecule?
Answer: 399 nM

Question: What about the Ki [7] of the same molecule?
Answer: 1280 nM

Question: For [pGlu]DGPIPP [EVASIN-7a], which Ki [5] is on record?
Answer: 492000 nM

Question: And the Ki [6]?
Answer: 70000 nM

Question: And the Ki [7]?
Answer: 40000 nM

Question: Which Ki [5] does the source give for [pGlu]WGRPPGPPIPP [EVASIN-12b] here?
Answer: 150000 nM

Question: And the Ki [6]?
Answer: 5 nM

Question: And the Ki [7]?
Answer: 150 nM

Question: For [pGlu]SWPGPNIPP [EVASIN-10a], which Ki [6] is on record?
Answer: 130 nM

Question: What about the Ki [7] of the same molecule?
Answer: 33 nM

Question: [pGlu]GRAPGPPIPP [EVASIN-11b] was tested. Which Ki [5] did it give?
Answer: 476000 nM

Question: What about the Ki [6] of the same molecule?
Answer: 3000 nM

Question: What about the Ki [7] of the same molecule?
Answer: 57 nM

Question: For EWPRPQIPP (pyroglutamic acid (<E) at position 1 (N-terminus)) [EVASIN-9a], which Ki [5] is on record?
Answer: 86000 nM

Question: What about the Ki [6] of the same molecule?
Answer: 100 nM

Question: What about the Ki [7] of the same molecule?
Answer: 1 nM

Question: How did the Ki [5] turn out when [pGlu]GWAWPRPQIPP [EVASIN-12a] was run?
Answer: 106000 nM

Question: And the Ki [6]?
Answer: 25 nM

Question: And the Ki [7]?
Answer: 25 nM

Question: What does the source list for [pGlu]GRAPHPPIPP [EVASIN-11c]?
Answer: Ki [5]: 589000 nM; Ki [6]: 2000 nM; Ki [7]: 40 nM

Question: With [pGlu]GGWPRPGPEIPP [EVASIN-13a] as the molecule, how does the Ki [5] read?
Answer: 473000 nM

Question: And the Ki [6]?
Answer: 50 nM

Question: And the Ki [7]?
Answer: 50 nM
